# Results: US7566737B2 (Genfit, priority 2002, dated 2009)
# How the values were obtained:
# [1] = system: HaCat cells; test: Antioxidant properties on cell cultures (carboxy-H2DCFDA fluorescence, AAPH stress), keratinocytes; assay type: cell-based, human; settings: 25 μM for 24 h, AAPH 750 μM
# How it was run: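 Cells were pretreated 24 h with compound at 25 μM, loaded 30 min at 37 °C with 25 μM carboxy-H2DCFDA, then stressed 30 min with 750 μM AAPH in phenol-red- and serum-free medium. ROS read as fluorescence ([…]); activity expressed as reduction in fluorescence signal.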
# [2] = system: LDL; test: Protection against LDL oxidation by copper (conjugated diene formation); assay type: biochemical
# Experimental: LDL oxidation is an important alteration and plays a predominant role in the establishment and development of atherosclerosis (Jurgens G et al., 1987). […] Unless otherwise indicated, the reagents were from Sigma (St Quentin, France). LDL were prepared according to the method described by (Havel R J et al., 1955). The solutions of test compounds were prepared at 10^−2 M concentration in bicarbonate buffer (pH 9) and diluted in PBS to obtain final concentrations ranging from 0.1 to 100 μM for a total ethanol concentration of […]. Prior to oxidation, EDTA was removed from the LDL preparation by dialysis. Oxidation then took place at 30° C. by addition of 100 μl of 16.6 μM CuSO4 solution to 160 μL of LDL (125 μg protein/ml) and 20 μl of a test compound solution. The formation of dienes, the species under observation, was followed by measuring optical density at 234 nm in the samples treated with the compounds but in the presence or absence of copper. Optical density at 234 nm was measured every 10 minutes for 8 hours in a thermostated spectrophotometer (Tecan Ultra 380). The compounds were considered to have antioxidant activity when they induced a longer lag phase and reduced the rate of oxidation and the amount of dienes formed in comparison with the control sample.
# [3] = biological target: T1, human PPARγ (Homo sapiens, UniProt P37231); test: PPARγ/Gal4 transactivation system; assay type: cell-based; settings: 10 μM
# T1 construct: expressed in transfected cells; host or cells: RK13 or COS-7
# T1 sequence (P37231 238-503 limits assumed): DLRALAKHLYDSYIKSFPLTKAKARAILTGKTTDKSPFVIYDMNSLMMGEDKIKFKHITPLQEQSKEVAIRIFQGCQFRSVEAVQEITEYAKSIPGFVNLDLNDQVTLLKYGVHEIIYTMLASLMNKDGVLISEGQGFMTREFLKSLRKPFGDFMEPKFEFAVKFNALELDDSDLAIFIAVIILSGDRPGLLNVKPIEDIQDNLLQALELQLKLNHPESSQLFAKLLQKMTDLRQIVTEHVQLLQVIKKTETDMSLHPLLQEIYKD
# Experimental: PPAR activation was tested in vitro in RK13 or COS-7 fibroblast cell lines by measuring the transcriptional activity of chimeras composed of the DNA binding domain of the yeast Gal4 transcription factor and the ligand binding domain of the different PPARs. These latter results were then confirmed in cell lines according to the following protocols.
# Culture protocols: RK13 were from ECACC (Porton Down, UK) and were grown in DMEM medium supplemented with 10% (V/V) fetal calf serum, 100 U/ml penicillin (Gibco, Paisley, UK) and 2 mM L-glutamine (Gibco, Paisley, UK). COS-7 cells were from ATCC and were grown in DMEM medium supplemented with 10% (V/V) fetal calf serum, 1% penicillin/streptomycine (Biochrom, AG), 1% of amino acids (Gibco) and 1% sodium pyruvate (Gibco).
# The culture medium was changed every two days. Cells were kept at 37° C. in a humidified 95% air/5% CO2 atmosphere.
# Description of plasmids used for transfection: The plasmids Gal4(RE)_TkpGL3, pGal4-hPPARα, pGal4-hPPARγ, pGal4-hPPARδ and pGal4-φ have been described in the literature (Raspe E et al., 1999). The pGal4-hPPARα, pGal4-hPPARγ and pGal4-hPPARδ constructs were obtained by cloning into the pGal4-φ vector PCR-amplified DNA fragments corresponding to the DEF domains of the human PPARs nuclear receptors.
# Transfection of RK13: RK13 cells were seeded in 24-well culture dishes at 5×10^4 cells/well and transfected for 2 hours with the reporter plasmid Gal4(RE)_TkpGL3 (50 ng/well), the expression vectors pGal4-φ, pGal4-hPPARα, pGal4-hPPARγ and pGal-hPPARδ (100 ng/well) and the transfection efficiency control vector pRL-CMV (1 ng/well) according to the previously described protocol (Raspe E, Madsen L, Lefebvre A M, Leitersdorf I, Gelman L, Peinado-Onsurbe J, Dallongeville J, Fruchart J C, Berge R and Staels B, 1999), then incubated for 36 hours with the test compounds. RK13 cells were incubated with the different compounds at concentrations of 10, 30 and 100 μM or 1, 10 and 100 μM for 24 hours. At the end of the experiment, the cells were lysed (Gibco, Paisley, UK) and luciferase activity was determined with a Dual-Luciferase™ Reporter Assay System kit (Promega, Madison, Wis., USA) according to the supplier's instructions. The protein content of the cell extracts was then measured with the Bio-Rad Protein Assay (Bio-Rad, Munich, Germany) as directed by the supplier.
# Transfection of COS7: Cells in suspension are transfected, in the presence of 10% (V/V) fetal calf serum, with 150 ng of DNA per well with a pGal4-PPAR/Gal4(RE)_TkpGL3 ratio of 1/10. Cells are then seeded in 96 well plates (4×10^4 cells/well) and incubated for 24 hours at 37° C. Activation with compounds is performed on 24 hours at 37° C. in culture medium without serum. At the end of the activation period, cells are lysed and luciferase activity is determined, using the Steady Glow Luciferase Kit (Promega), according to the supplier's instructions.
maximum induction factor [3],SMILES,antioxidant properties on cell cultures (in words) [1],"lag phase of conjugated diene formation ([2]; 10^−4M, FIG. 1-12, copper alone 120 minutes) [min]","rate of conjugated diene formation ([2]; 10^−4M, FIG. 1-13, copper alone 1.8)","maximum amount of conjugated dienes formed ([2]; FIG. 1-14, copper alone 372)","lag phase of conjugated diene formation ([2]; 10^−4M, FIG. 1-7, copper alone 82 minutes) [min]"
–,"Cc1cc(/C=C/C(=O)c2ccc(Br)cc2)cc(C)c1OC(C)(C)C(=O)O [Compound 41, 1-[4-bromophenyl]-3-[3,5-dimethyl-4-carboxydimethylmethyloxyphenyl]prop-2-en-1-one]",antioxidant properties,411,0.54 nmol/min/mg of LDL,71 nmol per mg of LDL,–
33.9,"CSc1ccc(C(=O)/C=C/c2cc(C)c(OC(C)(C)C(=O)O)c(C)c2)cc1 [Compound 29, 1-[4-methylthiophenyl]-3-[3,5-dimethyl-4-carboxydimethylmethyloxyphenyl]prop-2-en-1-one]",antioxidant properties,–,–,–,135
